US20060111333A1, “Structural, behavioral characterization, and synthesis of attractants for migratory lamprey” (priority 2004, published 2006)

Assays:
[1] = system: adult lamprey olfactory system; details: with high specificity; Polkinghorne 2001, Li 1995, Li 1997; cited from earlier work
[2] = system: migratory sea lampreys; assay: behavioral assay in large 2-choice maze; type: in vivo, sea lamprey; details: 14 trials of 4 lampreys
Protocol: Confirming biological activity using a behavioral assay. Migratory sea lampreys were tested at night in large (9×1.8 meters (m)) 2-choice mazes supplied with natural lake and rivers waters (400 L min^−1) designed to simulate the scenario of lamprey encountering a river plume in a lake. Test odors were pumped down one side (in a way shown by dye to effect complete mixing) and appropriate controls (carriers, etc.) down the other. Trials lasted 15 min and commenced when groups of 4 sea lamprey were released from the upstream section of the maze and the time they spent in the stimulus side or its control noted. Experiments typically employed 14 trails and were evaluated by t-test after arc-sign transformation (Vrieze et al., Can. J. Fish. Aquat. Sci., 58, 2374-2385 (2001)).

[3] = system: olfactory epithelium of migratory adult sea lamprey; assay: electro-olfactogram (EOG) recording of olfactory activity; type: in vivo; details: odorant pulsed over the nose, FIG. 2 insets
Excerpt: Using electro-olfactogram recording (EOG) to screen for olfactory activity. The EOG measures extracellular voltage transients believed to reflect large numbers of olfactory receptor generator potential (Sorensen et al. in: The Physiology of Fishes, 2nd ed., (ed., R. E. Evans), 375-406, (CRC Press, FL, 1998)). To accomplish EOG recording, freshly-captured migratory adult sea lamprey were anesthetized, immobilized, and their olfactory epithelium exposed following established protocols (Li et al., J. Gen. Physiol., 105, 569-589 (1995); and Li et al., Petromyzon marinus, J. Comp Physiol. A., 180, 429-438 (1997)). One electrode was placed on the head and the other positioned to find a region of maximum sensitivity to our standard, 10^−5 M L-arginine. Test odorants were then pulsed over the nose for 3-sec intervals with breaks. All stimuli were tested at least twice. Aliquots of appropriate solvents were diluted and tested as controls.

## C[C@H](CCC(=O)O)[C@H]1CC[C@H]2[C@@H]3[C@H](O)C[C@H]4C[C@H](O)CC[C@]4(C)[C@H]3C[C@H](O)[C@]12C [ACA, allocholic acid]
[1]
  concentration at which the adult lamprey olfactory system detects the product: 10^−11 Molar (M)

## C[C@H](CCCOS(=O)(=O)[O-])[C@H]1CC[C@H]2[C@@H]3[C@H](O)C[C@H]4C[C@H](O)CC[C@]4(C)[C@H]3C[C@H](O)[C@]12C.[Na+] [compound 1, petromyzonol sulfate, reference compound]
[2]; at 10^−11 M
  behavioral activity (attraction) in maze: only weak and somewhat inconsistent behavioral activity
[1]
  concentration at which the adult lamprey olfactory system detects the product: 10^−12 Molar (M)
[3]
  EOG threshold (lowest concentration detected by EOG recording): below 10^−12 M

## CC(C)[C@@H](CC[C@@H](C)[C@H]1CC[C@H]2[C@@H]3[C@H](OS(=O)(=O)[O-])C[C@H]4C[C@@H](NCCCN5CCCC5=O)CC[C@]4(C)[C@H]3CC[C@]12C)OS(=O)(=O)[O-].[Na+].[Na+] [compound 3, petromyzonamine disulfate]
[2]; at 10^−12 M
  behavioral activity (attraction) in maze: strongly attracted
[2]; at 10^−13 M
  behavioral activity (attraction) in maze: strongly attracted
[3]
  EOG threshold (lowest concentration detected by EOG recording): 10^−13 M

## petromyzosterol disulfate [compound 2]
[2]; at 10^−11 M
  behavioral activity (attraction) in maze: consistently attractive
[3]
  EOG threshold (lowest concentration detected by EOG recording): 10^−12 M
